Test [1] addresses T1, Mitogen-activated protein kinase kinase kinase 2 (Homo sapiens) (UniProt Q9Y2U5).
T1 sequence (whole entry): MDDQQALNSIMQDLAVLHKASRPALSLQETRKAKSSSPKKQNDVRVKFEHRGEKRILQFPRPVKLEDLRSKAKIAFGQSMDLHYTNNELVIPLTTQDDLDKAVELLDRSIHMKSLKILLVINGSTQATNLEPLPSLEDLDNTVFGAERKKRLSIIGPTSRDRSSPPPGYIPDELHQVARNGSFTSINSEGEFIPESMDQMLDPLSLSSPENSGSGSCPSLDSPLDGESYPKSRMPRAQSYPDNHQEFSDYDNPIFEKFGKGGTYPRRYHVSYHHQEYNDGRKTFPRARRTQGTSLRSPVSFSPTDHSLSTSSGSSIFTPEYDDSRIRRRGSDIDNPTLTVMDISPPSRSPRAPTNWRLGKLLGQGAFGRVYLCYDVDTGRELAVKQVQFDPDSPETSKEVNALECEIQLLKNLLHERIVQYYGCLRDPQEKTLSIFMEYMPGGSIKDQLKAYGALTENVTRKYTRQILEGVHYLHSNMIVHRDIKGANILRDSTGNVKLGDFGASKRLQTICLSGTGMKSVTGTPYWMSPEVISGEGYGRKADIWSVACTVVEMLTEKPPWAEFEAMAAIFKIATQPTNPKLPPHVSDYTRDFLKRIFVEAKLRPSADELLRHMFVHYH
The test is described as follows: Selectivity interaction (Ambit KINOMEscan and KiNATiv profiling in Jurkat cells) EUB0000090b MAP3K2. The test is classed as cell-based. As to conditions: at 1 µM.

Test [2] deals with Serine/threonine-protein kinase MARK2 (Homo sapiens) (UniProt Q7KZI7). The test is described as follows: Selectivity interaction (KinomeScan (DiscoverX)) EUB0000607a MARK2. Particulars: at 10 µM.
Test [3] deals with T2, Tyrosine-protein kinase receptor TYRO3 (Homo sapiens) (UniProt Q06418).
T2 sequence (whole entry): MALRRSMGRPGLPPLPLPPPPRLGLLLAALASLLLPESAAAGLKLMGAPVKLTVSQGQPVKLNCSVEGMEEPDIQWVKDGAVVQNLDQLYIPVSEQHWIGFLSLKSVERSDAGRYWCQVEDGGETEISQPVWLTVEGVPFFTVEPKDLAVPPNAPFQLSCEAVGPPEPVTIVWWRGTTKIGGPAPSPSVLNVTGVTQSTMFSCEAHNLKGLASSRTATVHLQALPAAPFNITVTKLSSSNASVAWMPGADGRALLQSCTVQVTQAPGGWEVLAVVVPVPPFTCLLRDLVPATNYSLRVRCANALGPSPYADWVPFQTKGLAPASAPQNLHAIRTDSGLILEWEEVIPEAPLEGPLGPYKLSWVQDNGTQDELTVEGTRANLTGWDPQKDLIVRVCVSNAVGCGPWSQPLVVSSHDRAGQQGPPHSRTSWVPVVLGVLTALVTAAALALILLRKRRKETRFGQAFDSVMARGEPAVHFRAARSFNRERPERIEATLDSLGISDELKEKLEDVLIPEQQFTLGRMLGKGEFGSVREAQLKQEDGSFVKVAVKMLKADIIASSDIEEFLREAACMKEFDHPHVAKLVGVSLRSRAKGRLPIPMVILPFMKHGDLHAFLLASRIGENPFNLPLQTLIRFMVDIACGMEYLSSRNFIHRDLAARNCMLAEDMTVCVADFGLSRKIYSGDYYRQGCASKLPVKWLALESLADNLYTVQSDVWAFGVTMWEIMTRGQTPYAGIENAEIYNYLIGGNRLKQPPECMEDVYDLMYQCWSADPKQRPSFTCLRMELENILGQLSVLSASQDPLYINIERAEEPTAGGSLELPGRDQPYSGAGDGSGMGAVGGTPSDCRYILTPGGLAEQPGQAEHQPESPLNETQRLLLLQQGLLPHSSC
The test is described as follows: Selectivity interaction (KinomeScan (DiscoverX)) EUB0000666a TYRO3. Particulars: at 10 µM.

Test [4] addresses Serine/threonine-protein kinase Chk2 (Homo sapiens) (UniProt O96017). The test is described as follows: Selectivity interaction (KinomeScan (DiscoverX)) EUB0000229b CHEK2. As to conditions: at 10 µM.
The target in test [5] is T3, Membrane-associated tyrosine- and threonine-specific cdc2-inhibitory kinase (Homo sapiens) (UniProt Q99640).
T3 sequence (whole entry): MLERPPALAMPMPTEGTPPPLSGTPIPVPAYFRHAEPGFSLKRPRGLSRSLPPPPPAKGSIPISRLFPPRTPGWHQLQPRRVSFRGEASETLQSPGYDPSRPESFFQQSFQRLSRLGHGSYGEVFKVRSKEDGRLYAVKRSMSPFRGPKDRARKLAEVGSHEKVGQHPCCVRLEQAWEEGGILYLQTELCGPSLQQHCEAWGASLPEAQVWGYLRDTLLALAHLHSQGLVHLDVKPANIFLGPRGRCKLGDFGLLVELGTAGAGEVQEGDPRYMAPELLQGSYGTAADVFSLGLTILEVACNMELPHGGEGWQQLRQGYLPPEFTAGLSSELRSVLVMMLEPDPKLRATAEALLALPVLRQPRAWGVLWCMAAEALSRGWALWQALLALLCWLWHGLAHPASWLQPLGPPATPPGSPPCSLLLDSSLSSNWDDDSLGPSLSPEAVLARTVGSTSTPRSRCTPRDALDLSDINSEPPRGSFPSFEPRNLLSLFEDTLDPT
Description: Selectivity interaction (KinomeScan (DiscoverX)) EUB0000229b PKMYT1. Particulars: at 10 µM.

The target of test [6] is Dual specificity mitogen-activated protein kinase kinase 2 (Homo sapiens) (UniProt P36507). Description: Selectivity interaction (KinomeScan (DiscoverX)) EUB0000229b MAP2K2. Particulars: at 10 µM.
Test [7] has as its target Serine/threonine-protein kinase SIK3 (Homo sapiens) (UniProt Q9Y2K2). The test is described as follows: Selectivity interaction (ActivX KiNativ screen (kinase selectivity in THP-1 cell lysates)) EUB0000639a SIK3. Format: subcellular. As to conditions: lysate.
The target in test [8] is Serine/threonine-protein kinase B-raf (Homo sapiens) (UniProt P15056). Description: Selectivity interaction (KinomeScan (DiscoverX)) EUB0000092b BRAF. Particulars: at 10 µM.
Serine/threonine-protein kinase B-raf (Homo sapiens), sequence (P15056 whole entry): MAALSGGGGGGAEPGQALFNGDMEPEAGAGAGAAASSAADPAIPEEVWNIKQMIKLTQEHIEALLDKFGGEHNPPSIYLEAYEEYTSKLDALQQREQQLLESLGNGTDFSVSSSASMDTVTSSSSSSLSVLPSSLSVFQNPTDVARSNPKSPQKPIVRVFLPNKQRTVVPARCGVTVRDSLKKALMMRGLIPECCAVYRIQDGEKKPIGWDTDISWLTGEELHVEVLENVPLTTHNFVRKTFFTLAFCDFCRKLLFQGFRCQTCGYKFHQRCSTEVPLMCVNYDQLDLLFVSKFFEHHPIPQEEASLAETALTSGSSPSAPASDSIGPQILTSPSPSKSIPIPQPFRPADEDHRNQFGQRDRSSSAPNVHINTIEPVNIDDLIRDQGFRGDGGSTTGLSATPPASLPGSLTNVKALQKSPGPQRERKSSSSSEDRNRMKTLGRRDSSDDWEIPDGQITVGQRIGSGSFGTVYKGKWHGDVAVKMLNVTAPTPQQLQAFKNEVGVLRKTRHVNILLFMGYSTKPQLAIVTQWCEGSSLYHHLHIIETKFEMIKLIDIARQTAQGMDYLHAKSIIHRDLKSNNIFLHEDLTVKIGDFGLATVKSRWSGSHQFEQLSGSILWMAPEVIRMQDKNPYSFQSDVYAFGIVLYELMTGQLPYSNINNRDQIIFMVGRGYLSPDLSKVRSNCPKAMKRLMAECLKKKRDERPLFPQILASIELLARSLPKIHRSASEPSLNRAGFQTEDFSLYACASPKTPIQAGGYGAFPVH

Serine/threonine-protein kinase SIK3 (Homo sapiens), sequence (Q9Y2K2 whole entry, looked up): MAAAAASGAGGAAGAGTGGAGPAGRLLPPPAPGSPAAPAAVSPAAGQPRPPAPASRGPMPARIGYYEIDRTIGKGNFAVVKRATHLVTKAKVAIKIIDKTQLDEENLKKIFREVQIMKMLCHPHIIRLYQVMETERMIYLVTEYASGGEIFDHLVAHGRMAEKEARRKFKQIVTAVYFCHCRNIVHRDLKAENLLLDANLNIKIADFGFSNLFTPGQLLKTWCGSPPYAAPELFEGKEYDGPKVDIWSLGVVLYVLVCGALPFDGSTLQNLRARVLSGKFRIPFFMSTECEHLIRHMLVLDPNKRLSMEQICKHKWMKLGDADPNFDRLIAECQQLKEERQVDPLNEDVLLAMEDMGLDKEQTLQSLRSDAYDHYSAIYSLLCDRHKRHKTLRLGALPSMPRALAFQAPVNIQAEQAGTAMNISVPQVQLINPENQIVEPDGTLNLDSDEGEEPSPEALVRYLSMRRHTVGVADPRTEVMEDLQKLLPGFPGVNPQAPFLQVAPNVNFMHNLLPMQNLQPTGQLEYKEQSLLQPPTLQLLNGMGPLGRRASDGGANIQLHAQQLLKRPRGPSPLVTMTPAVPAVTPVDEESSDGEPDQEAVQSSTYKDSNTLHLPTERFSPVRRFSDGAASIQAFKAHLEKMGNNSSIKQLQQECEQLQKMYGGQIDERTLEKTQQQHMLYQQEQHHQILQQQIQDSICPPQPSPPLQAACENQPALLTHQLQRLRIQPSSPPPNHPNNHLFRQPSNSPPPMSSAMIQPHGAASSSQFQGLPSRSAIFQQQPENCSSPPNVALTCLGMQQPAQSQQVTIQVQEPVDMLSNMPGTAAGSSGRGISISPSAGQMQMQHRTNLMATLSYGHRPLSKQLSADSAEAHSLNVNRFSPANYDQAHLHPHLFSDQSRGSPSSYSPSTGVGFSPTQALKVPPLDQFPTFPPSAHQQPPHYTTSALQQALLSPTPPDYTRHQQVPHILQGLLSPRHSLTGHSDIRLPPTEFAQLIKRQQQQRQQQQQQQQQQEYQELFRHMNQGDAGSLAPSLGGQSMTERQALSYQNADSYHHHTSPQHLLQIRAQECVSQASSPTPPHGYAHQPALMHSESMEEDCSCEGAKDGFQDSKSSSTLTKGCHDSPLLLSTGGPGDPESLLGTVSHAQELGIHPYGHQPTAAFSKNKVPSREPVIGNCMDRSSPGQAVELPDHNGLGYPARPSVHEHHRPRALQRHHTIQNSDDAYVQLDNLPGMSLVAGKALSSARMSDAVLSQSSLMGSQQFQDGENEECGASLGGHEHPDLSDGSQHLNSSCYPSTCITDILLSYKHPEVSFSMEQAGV
Serine/threonine-protein kinase MARK2 (Homo sapiens), sequence (Q7KZI7 whole entry): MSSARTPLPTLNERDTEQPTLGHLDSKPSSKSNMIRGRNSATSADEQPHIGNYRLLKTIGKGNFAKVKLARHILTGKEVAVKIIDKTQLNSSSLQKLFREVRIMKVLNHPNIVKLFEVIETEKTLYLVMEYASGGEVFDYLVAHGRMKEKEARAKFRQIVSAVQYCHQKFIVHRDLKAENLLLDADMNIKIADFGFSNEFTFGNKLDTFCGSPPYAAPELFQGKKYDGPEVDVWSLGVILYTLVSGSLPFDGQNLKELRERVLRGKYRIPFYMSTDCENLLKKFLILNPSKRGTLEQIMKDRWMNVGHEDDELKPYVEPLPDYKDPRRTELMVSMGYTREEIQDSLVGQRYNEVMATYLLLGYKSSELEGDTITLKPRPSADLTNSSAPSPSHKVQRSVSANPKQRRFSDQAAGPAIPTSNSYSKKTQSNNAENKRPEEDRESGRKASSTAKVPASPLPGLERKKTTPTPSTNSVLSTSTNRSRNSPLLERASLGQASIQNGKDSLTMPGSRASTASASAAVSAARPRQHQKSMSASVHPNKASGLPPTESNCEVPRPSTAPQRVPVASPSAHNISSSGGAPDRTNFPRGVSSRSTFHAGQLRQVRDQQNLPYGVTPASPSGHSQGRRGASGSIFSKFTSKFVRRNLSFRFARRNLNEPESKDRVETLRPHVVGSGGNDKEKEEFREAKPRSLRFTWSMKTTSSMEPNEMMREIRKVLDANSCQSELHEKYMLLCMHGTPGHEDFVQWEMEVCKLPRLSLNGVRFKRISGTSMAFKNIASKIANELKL
Dual specificity mitogen-activated protein kinase kinase 2 (Homo sapiens), sequence (P36507 whole entry): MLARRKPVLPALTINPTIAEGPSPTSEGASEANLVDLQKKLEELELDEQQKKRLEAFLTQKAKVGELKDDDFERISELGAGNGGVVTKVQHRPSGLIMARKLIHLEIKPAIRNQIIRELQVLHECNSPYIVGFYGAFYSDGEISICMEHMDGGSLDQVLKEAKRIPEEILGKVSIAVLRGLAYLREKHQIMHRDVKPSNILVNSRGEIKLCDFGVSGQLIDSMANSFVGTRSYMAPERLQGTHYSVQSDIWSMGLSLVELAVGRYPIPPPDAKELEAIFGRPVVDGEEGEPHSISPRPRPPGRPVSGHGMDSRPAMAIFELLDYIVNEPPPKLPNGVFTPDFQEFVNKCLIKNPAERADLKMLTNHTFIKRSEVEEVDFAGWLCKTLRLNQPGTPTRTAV
Serine/threonine-protein kinase Chk2 (Homo sapiens), sequence (O96017 whole entry): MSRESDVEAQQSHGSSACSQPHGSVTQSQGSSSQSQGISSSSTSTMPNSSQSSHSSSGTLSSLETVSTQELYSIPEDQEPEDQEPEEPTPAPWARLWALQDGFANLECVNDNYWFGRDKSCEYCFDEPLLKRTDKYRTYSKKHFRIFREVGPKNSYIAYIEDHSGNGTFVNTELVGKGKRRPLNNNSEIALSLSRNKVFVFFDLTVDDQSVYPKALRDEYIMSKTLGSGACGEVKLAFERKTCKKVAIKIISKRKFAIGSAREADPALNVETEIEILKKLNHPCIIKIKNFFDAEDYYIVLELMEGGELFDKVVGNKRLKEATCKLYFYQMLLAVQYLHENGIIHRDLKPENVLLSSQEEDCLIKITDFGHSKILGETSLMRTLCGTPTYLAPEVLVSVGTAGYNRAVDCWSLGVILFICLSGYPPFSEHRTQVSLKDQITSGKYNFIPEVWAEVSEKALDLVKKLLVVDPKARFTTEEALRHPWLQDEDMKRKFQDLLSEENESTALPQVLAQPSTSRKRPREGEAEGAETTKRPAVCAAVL

`CN(C)C/C=C/C(=O)Nc1ccc(C(=O)N2CCCC(Nc3ncc(Cl)c(-c4c[nH]c5ccccc45)n3)C2)cc1` (configuration not stated): the % of control in test [1] came out at 99%.

For `CNC(=O)Nc1ccc(-c2nc(N3CC4CCC(C3)O4)c3cnn(C4CCC5(CC4)OCCO5)c3n2)cc1`, the % of control in test [2] came out at 100%.

`O=C(NOC[C@H](O)CO)c1ccc(F)c(F)c1Nc1ccc(I)cc1F` came in with a % of control in test [3] of 80%.

`COc1cc(N(C)c2ccnc3ccc(C(F)(F)F)cc23)cc(OC)c1OC`: the % binding in test [4] stood at 74%; in test [5], 94%; in test [6], 68%.

Turning to `CC[C@@H]1[C@H](F)C(=O)N[C@@H]1COc1nccc2cc(C(N)=O)c(OC)cc12` [ZIMLOVISERTIB], the % of inhibition in test [7] (at 0.01 µM) is 5.4%; in test [7] (at 0.04 µM), 3.4%; in test [7] (at 0.2 µM), 15.7%; in test [7] (at 1 µM), -1.4%; in test [7] (at 5 µM), -7.8%.

With `CCC(=O)N1CCN(c2ccc(-n3c(=O)ccc4cnc5ccc(-c6cnc7ccccc7c6)cc5c43)cc2C(F)(F)F)CC1`, the % of control in test [8] came to 59%.

For the origin of these results see ChEMBL document CHEMBL5465560, “Selectivity Literature for EUbOPEN Chemogenomic Library” (2024).
